Patent US10597388B2, “Pyridazinone herbicides” (FMC CORPORATION, priority 2014, dated 2020)

Key:
Assay in all cases: Test D controlled growth environment herbicide test, pre- and postemergence
Format in all cases: in vivo
[1] = tested on: Russian thistle (Salsola kali)
How it was run: (§1)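 Pre-emergence: seeds sown in silt loam soil were sprayed with compound in a non-phytotoxic solvent mix containing surfactant. Post-emergence: plants at 2 to 18 cm (1- to 4-leaf stage) in peat moss/vermiculite medium got the same formulation. Visual 0–100 rating versus controls after 14 to 21 d.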

[2] = tested on: bluegrass (annual bluegrass, Poa annua)
How it was run: as §1

[3] = tested on: bromegrass, downy (downy bromegrass, Bromus tectorum)
How it was run: as §1

[4] = tested on: buckwheat, wild (wild buckwheat, Polygonum convolvulus)
How it was run: as §1

[5] = tested on: canarygrass (Phalaris minor)
How it was run: as §1

[6] = tested on: chamomile (scentless chamomile, Matricaria inodora)
How it was run: as §1

[7] = tested on: field poppy (Papaver rhoeas)
How it was run: as §1

[8] = tested on: field violet (Viola arvensis)
How it was run: as §1

[9] = tested on: mustard, wild (wild mustard, Sinapis arvensis)
How it was run: as §1

[10] = tested on: oat, wild (wild oat, Avena fatua)
How it was run: as §1

[11] = tested on: oilseed rape (Brassica napus)
How it was run: as §1

[12] = tested on: radish, wild (wild radish, Raphanus raphanistrum)
How it was run: as §1

[13] = tested on: wheat, spring (spring wheat, Triticum aestivum)
How it was run: as §1

[14] = Postemergence, 31 g ai/ha, scale 0 to 100 (0 no effect, 100 complete control)
[15] = Postemergence, 125 g ai/ha, visual rating on scale 0 (no effect) to 100 (complete control), 14 to 21 d
[16] = Postemergence, 250 g ai/ha, scale 0 to 100 (0 no effect, 100 complete control)
[17] = Preemergence, 125 g ai/ha, scale 0 to 100 (0 no effect, 100 complete control)
[18] = Preemergence, 250 g ai/ha, scale 0 to 100 (0 no effect, 100 complete control)
[19] = postemergence, 62 g ai/ha, scale 0 to 100, 0 no effect, 100 complete control
[20] = Preemergence, 62 g ai/ha, scale 0 to 100 (0 no effect, 100 complete control)

`CCOC(=O)Oc1c(C)nn(C)c(=O)c1-c1c(C)sc2c(C)cc(C)cc12` [Compound 83] was tested, and the “Russian Thistle plant response rating” value [1, 14] was 75, the “Plant response rating, Russian Thistle” value [1, 15] was 80 and the “Plant response rating, Russian Thistle” value [1, 16] was 85. For the same molecule, the “Plant response rating (scale of 0 to 100), Russian Thistle” value ([1]; Preemergence, 31 g ai/ha) was 0, the “Plant response rating (scale of 0 to 100), Russian Thistle” value ([1]; Preemergence, 62 g ai/ha) was 0 and the “Plant response rating, Russian Thistle” value [1, 17] was 15. For the same molecule, the “Plant response rating, Russian Thistle” value [1, 18] was 0, the “Plant response rating, Russian Thistle” value [1, 19] was 80 and the “Bluegrass plant response rating” value [2, 14] was 0. For the same molecule, the “Plant response rating, Bluegrass” value [2, 15] was 15, the “Plant response rating, Bluegrass” value [2, 16] was 25 and the “Plant response rating (scale of 0 to 100), Bluegrass” value ([2]; Preemergence, 31 g ai/ha) was 15. The “Plant response rating, Bluegrass” value [2, 20] was 15, the “Plant response rating, Bluegrass” value [2, 17] was 35 and the “Plant response rating, Bluegrass” value [2, 18] was 35. The “Plant response rating, Bluegrass” value [2, 19] was 10, the “Bromegrass, Downy plant response rating” value [3, 14] was 25 and the “Plant response rating, Bromegrass, Downy” value [3, 15] was 50. The “Plant response rating, Bromegrass, Downy” value [3, 16] was 70, the “Plant response rating (scale of 0 to 100), Bromegrass, Downy” value ([3]; Preemergence, 31 g ai/ha) was 20 and the “Plant response rating, Bromegrass, Downy” value [3, 20] was 30. For the same molecule, the “Plant response rating, Bromegrass, Downy” value [3, 17] was 60, the “Plant response rating, Bromegrass, Downy” value [3, 18] was 40 and the “Plant response rating, Bromegrass, Downy” value [3, 19] was 35. The “Buckwheat, Wild plant response rating” value [4, 14] was 100, the “Plant response rating, Buckwheat, Wild” value [4, 15] was 100 and the “Plant response rating, Buckwheat, Wild” value [4, 16] was 100. For the same molecule, the “Plant response rating (scale of 0 to 100), Buckwheat, Wild” value ([4]; Preemergence, 31 g ai/ha) was 0, the “Plant response rating, Buckwheat, Wild” value [4, 20] was 0 and the “Plant response rating, Buckwheat, Wild” value [4, 17] was 0. For the same molecule, the “Plant response rating, Buckwheat, Wild” value [4, 18] was 25, the “Plant response rating, Buckwheat, Wild” value [4, 19] was 100 and the “Canarygrass plant response rating” value [5, 14] was 50. The “Plant response rating, Canarygrass” value [5, 15] was 80, the “Plant response rating, Canarygrass” value [5, 16] was 90 and the “Plant response rating (scale of 0 to 100), Canarygrass” value ([5]; Preemergence, 31 g ai/ha) was 65. For the same molecule, the “Plant response rating (scale of 0 to 100), Canarygrass” value ([5]; Preemergence, 62 g ai/ha) was 85, the “Plant response rating, Canarygrass” value [5, 17] was 90 and the “Plant response rating, Canarygrass” value [5, 18] was 100. For the same molecule, the “Plant response rating, Canarygrass” value [5, 19] was 75, the “Chamomile plant response rating” value [6, 14] was 95 and the “Plant response rating, Chamomile” value [6, 15] was 100. For the same molecule, the “Plant response rating, Chamomile” value [6, 16] was 100, the “Plant response rating, Chamomile” value [6, 19] was 100 and the “Field Poppy plant response rating” value [7, 14] was 100. For the same molecule, the “Plant response rating, Field Poppy” value [7, 15] was 100, the “Plant response rating, Field Poppy” value [7, 16] was 100 and the “Plant response rating (scale of 0 to 100), Field Poppy” value ([7]; Preemergence, 31 g ai/ha) was 100. The “Plant response rating (scale of 0 to 100), Field Poppy” value ([7]; Preemergence, 62 g ai/ha) was 100, the “Plant response rating, Field Poppy” value [7, 17] was 100 and the “Plant response rating, Field Poppy” value [7, 18] was 100. For the same molecule, the “Plant response rating, Field Poppy” value [7, 19] was 100, the “Field Violet plant response rating” value [8, 14] was 90 and the “Plant response rating, Field Violet” value [8, 15] was 100. For the same molecule, the “Plant response rating, Field Violet” value [8, 16] was 100, the “Plant response rating (scale of 0 to 100), Field Violet” value ([8]; Preemergence, 31 g ai/ha) was 75 and the “Plant response rating (scale of 0 to 100), Field Violet” value ([8]; Preemergence, 62 g ai/ha) was 80. The “Plant response rating, Field Violet” value [8, 17] was 95, the “Plant response rating, Field Violet” value [8, 18] was 100 and the “Plant response rating, Field Violet” value [8, 19] was 80. The “Mustard, Wild plant response rating” value [9, 14] was 25, the “Plant response rating, Mustard, Wild” value [9, 15] was 65 and the “Plant response rating, Mustard, Wild” value [9, 16] was 70. The “Plant response rating (scale of 0 to 100), Mustard, Wild” value ([9]; Preemergence, 31 g ai/ha) was 0, the “Plant response rating (scale of 0 to 100), Mustard, Wild” value ([9]; Preemergence, 62 g ai/ha) was 0 and the “Plant response rating, Mustard, Wild” value [9, 17] was 35. For the same molecule, the “Plant response rating, Mustard, Wild” value [9, 18] was 25, the “Plant response rating, Mustard, Wild” value [9, 19] was 25 and the “Oat, Wild plant response rating” value [10, 14] was 80. The “Plant response rating, Oat, Wild” value [10, 15] was 90, the “Plant response rating, Oat, Wild” value [10, 16] was 95 and the “Plant response rating (scale of 0 to 100), Oat, Wild” value ([10]; Preemergence, 31 g ai/ha) was 80. The “Plant response rating (scale of 0 to 100), Oat, Wild” value ([10]; Preemergence, 62 g ai/ha) was 85, the “Plant response rating, Oat, Wild” value [10, 17] was 90 and the “Plant response rating, Oat, Wild” value [10, 18] was 90. The “Plant response rating, Oat, Wild” value [10, 19] was 85, the “Oilseed Rape plant response rating” value [11, 14] was 65 and the “Plant response rating, Oilseed Rape” value [11, 15] was 75. The “Plant response rating, Oilseed Rape” value [11, 16] was 95, the “Plant response rating (scale of 0 to 100), Oilseed Rape” value ([11]; Preemergence, 31 g ai/ha) was 5 and the “Plant response rating (scale of 0 to 100), Oilseed Rape” value ([11]; Preemergence, 62 g ai/ha) was 5. For the same molecule, the “Plant response rating, Oilseed Rape” value [11, 17] was 10, the “Plant response rating, Oilseed Rape” value [11, 18] was 10 and the “Plant response rating, Oilseed Rape” value [11, 19] was 70. For the same molecule, the “Radish, Wild plant response rating” value [12, 14] was 75, the “Plant response rating, Radish, Wild” value [12, 15] was 100 and the “Plant response rating, Radish, Wild” value [12, 16] was 100. The “Plant response rating (scale of 0 to 100), Radish, Wild” value ([12]; Preemergence, 31 g ai/ha) was 30, the “Plant response rating (scale of 0 to 100), Radish, Wild” value ([12]; Preemergence, 62 g ai/ha) was 70 and the “Plant response rating, Radish, Wild” value [12, 17] was 90. For the same molecule, the “Plant response rating, Radish, Wild” value [12, 18] was 90, the “Plant response rating, Radish, Wild” value [12, 19] was 90 and the “Wheat, Spring plant response rating” value [13, 14] was 0. The “Plant response rating, Wheat, Spring” value [13, 15] was 5, the “Plant response rating, Wheat, Spring” value [13, 16] was 20 and the “Plant response rating (scale of 0 to 100), Wheat, Spring” value ([13]; Preemergence, 31 g ai/ha) was 0. The “Plant response rating (scale of 0 to 100), Wheat, Spring” value ([13]; Preemergence, 62 g ai/ha) was 0, the “Plant response rating, Wheat, Spring” value [13, 17] was 10 and the “Plant response rating, Wheat, Spring” value [13, 18] was 35. The “Plant response rating, Wheat, Spring” value [13, 19] was 0.
